Assay results as given in patent publication US10961199B2 (3B Pharmaceuticals GmbH, priority 2012, dated 2021).

Key:
NTR1 [1] = molecular target: T1, NTR1 (Homo sapiens, UniProt P30989); assay: NTR1 radioligand binding assay (RLB, Cerep); design: host or cells: CHO cells (receptor preparation); conditions: CHO cells recombinantly expressing the human receptor; 0.05 nM 125I-(Tyr3-neurotensin); 60 min at 4° C.
Method: Radioligand Binding Assay
In order to determine the binding affinity of compounds comprising a radiolabel for NTR1, a radioligand binding assay was carried out. A radioligand is a radioactive biochemical substance that is used for diagnosis or for research-oriented study of cellular receptor systems of the body. In […] systems it is often used to quantify the binding of a test molecule to the binding site of radioligand. The higher the affinity of the molecule, the more radioligand is displaced from the binding site. The amount of bound radioligand can be measured by scintillation counting and thereby quantified. This assay is commonly used to calculate binding constants of molecules to receptors.
The NTR1 radioligand binding assay was performed by Cerep (Celle l'Evescault, France; Catalog reference 0109) according to Vita et al., FEBS Lett., 1993, 317, 139-142. NTR1 was prepared from CHO cells recombinantly expressing the human receptor and incubated with 0.05 nM ^125I-(Tyr^3-neurotensin) and serial dilutions of the test compounds. […] The result for each test compound is expressed as IC50 concentration and provides a measure for the affinity of the test compound for NTR1.

NTR1 [2] = molecular target: T1, NTR1; assay: Functional Ca2+ mobilisation assay (antagonist assay); assay type: cell-based; design: HA-tagged puromycin N-acetyltransferase-ubiquitin fusion (pExoIN2 system; HEK293 lines only) (N); host or cells: HT29 (endogenous receptor) or HEK293 stably transfected with NTR1; conditions: HT29 or NTR1-expressing HEK293 cells, EC80-concentration of agonist
From the text: Functional Ca^2+ Mobilisation Assay
Ca^2+ ions are usually kept at nanomolar levels in the cytosol of cells, and act in a number of signal transduction pathways as second messengers. […] Changes in calcium ion concentration in standard assay protocols can be readily detected with fluorescent dyes that emit light when changes in intracellular Ca^2+ ion concentration occur. Given the transient nature of these responses, they are often read with instrumentation that has ‘inject and read’ capability.
HT29 or NTR1-expressing HEK293 cells were trypsinized and seeded into black flat clear-bottom 96-well plates (Corning, Amsterdam, The Netherlands) at 6×10^5 cells per well. […] For agonist assays, serial dilutions of agonistic substances were added to the cells loaded with dye and the change of the fluorescent signal was recorded continually for approx. 90 s using a FlexStation II (Molecular Devices, Biberach, Germany). […] For antagonist assays, cells loaded with 100 μl of Ca5-dye were pre-incubated with serial dilutions of antagonistic substances for 30 min, before the EC80-concentration of agonist was added to the cells and the change of the fluorescent signal was recorded continually for approx. 90 s. […]

delta 2 (DOP) (h) = molecular target: T2, delta 2 (DOP) (h) (Homo sapiens, UniProt P41143); assay: ExpresSProfile delta 2 (DOP) (h) agonist radioligand; assay type: binding; conditions: Reference Compound
T2 construct: Cerep (contract assay) P1
T2 sequence (P41143 whole entry): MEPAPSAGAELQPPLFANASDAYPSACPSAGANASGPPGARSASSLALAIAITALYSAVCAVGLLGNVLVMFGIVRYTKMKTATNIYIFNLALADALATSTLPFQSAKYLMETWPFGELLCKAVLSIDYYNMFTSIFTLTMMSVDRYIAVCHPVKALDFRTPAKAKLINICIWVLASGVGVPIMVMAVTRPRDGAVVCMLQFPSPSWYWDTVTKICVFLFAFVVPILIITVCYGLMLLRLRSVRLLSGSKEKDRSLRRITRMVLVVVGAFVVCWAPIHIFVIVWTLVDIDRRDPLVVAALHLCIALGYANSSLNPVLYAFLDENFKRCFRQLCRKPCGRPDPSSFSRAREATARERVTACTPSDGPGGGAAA

B2 (h) = molecular target: T3, B2 (h) (Homo sapiens, UniProt P30411); assay: ExpresSProfile B2 (h) agonist radioligand; assay type: binding
T3 construct: Cerep P1
T3 sequence (P30411 1-391): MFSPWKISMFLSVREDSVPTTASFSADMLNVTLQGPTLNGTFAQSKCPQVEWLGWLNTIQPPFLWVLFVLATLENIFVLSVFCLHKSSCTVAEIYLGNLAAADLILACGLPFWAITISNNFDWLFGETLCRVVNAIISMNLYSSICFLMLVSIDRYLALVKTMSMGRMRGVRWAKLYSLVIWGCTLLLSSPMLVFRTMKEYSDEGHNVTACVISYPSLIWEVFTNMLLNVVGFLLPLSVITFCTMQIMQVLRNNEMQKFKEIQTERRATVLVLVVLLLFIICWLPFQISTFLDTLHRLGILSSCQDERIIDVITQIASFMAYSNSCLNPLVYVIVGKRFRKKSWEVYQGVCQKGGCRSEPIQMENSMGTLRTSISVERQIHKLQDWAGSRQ

CXCR2 (IL-8B) (h) = molecular target: T4, CXCR2 (IL-8B) (h) (Homo sapiens, UniProt P25025); assay: ExpresSProfile CXCR2 (IL-8B) (h) agonist radioligand; assay type: binding; conditions: Reference Compound
T4 construct: Cerep P1
T4 sequence (P25025 1-360): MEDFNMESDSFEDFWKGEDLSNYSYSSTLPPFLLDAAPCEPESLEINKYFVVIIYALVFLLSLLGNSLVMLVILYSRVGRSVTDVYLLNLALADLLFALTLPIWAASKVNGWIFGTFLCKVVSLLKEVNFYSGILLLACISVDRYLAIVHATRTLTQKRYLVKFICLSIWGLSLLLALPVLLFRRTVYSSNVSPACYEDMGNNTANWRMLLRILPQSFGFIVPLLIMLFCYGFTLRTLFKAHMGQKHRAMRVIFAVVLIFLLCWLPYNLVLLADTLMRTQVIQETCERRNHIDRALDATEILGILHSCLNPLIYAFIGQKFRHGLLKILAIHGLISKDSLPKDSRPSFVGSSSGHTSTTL

CCR1 (h) = molecular target: T5, CCR1 (h) (Homo sapiens, UniProt P32246); assay: ExpresSProfile CCR1 (h) agonist radioligand; assay type: binding; conditions: Reference Compound; read-out: Ki Ref
T5 construct: Cerep P1
T5 sequence (P32246 1-355): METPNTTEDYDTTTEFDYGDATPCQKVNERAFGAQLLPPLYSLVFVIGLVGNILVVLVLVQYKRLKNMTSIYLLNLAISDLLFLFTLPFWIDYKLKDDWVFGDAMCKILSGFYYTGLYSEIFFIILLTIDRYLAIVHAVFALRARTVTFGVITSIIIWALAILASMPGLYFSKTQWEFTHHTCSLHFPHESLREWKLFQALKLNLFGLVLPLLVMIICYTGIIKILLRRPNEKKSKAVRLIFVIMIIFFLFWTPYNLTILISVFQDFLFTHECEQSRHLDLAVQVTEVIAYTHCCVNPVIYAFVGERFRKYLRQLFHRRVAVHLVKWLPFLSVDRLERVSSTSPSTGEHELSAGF

KV channel = assay: ExpresSProfile KV channel antagonist radioligand; assay type: binding; conditions: Reference Compound; read-out: Ki Ref
CCK1 (CCKA) (h) = molecular target: T6, CCK1 (CCKA) (h) (Homo sapiens, UniProt P32238); assay: ExpresSProfile CCK1 (CCKA) (h) agonist radioligand; assay type: binding; conditions: Reference Compound
T6 construct: Cerep P1
T6 sequence (P32238 1-428): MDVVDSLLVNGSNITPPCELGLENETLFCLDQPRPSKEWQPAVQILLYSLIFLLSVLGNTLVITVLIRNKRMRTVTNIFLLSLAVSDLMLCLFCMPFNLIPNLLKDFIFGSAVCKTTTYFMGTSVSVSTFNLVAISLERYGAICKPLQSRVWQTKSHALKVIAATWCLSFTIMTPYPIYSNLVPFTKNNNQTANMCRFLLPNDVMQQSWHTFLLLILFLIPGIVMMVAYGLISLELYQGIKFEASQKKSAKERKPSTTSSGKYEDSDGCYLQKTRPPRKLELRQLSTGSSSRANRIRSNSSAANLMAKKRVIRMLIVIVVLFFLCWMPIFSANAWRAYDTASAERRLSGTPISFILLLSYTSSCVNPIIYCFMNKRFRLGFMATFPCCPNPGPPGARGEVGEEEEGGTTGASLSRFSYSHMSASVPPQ

T1 sequence (P30989 whole entry): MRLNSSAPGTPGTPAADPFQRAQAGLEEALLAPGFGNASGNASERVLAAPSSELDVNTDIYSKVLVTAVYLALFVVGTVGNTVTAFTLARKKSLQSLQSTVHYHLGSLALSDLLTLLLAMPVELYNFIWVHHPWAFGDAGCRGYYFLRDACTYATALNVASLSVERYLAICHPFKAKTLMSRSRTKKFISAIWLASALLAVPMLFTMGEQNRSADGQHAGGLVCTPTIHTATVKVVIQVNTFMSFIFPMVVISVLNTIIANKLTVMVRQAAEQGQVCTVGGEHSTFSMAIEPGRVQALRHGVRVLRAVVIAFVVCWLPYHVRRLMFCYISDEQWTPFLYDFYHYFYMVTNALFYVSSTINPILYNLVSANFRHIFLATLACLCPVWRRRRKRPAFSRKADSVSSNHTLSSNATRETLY

CNCCCN(C)CCCN(C)C(=O)c1ccc(-n2nc(C(=O)NC3(C(=O)O)C4CC5CC(C4)CC3C5)cc2-c2c(OC)cccc2OC)c(C(C)C)c1 (stereo not drawn) [(III), 2-({5-(2,6-Dimethoxy-phenyl)-1-[2-isopropyl-4-(methyl-{3-[methyl-(3-methylamino-propyl)-amino]-propyl}-carbamoyl)-phenyl]-1H-pyrazole-3-carbonyl}-amino)-adamantane-2-carboxylic acid]
IC50 [nM] RLB (NTR1 [1]): single digit nanomolar
IC50 [nM] Ca (NTR1 [2]): single digit nanomolar

DPDPE
nH Ref (delta 2 (DOP) (h)): 0.9

NPC 567
nH Ref (B2 (h)): 0.9

IL-8: reference compound, CXCR2 (IL-8B) (h) assay
nH Ref (CXCR2 (IL-8B) (h)): 1.4
Ki (CXCR2 (IL-8B) (h); read-out: Ki Ref): 0.056 nM

MIP-1alpha: reference compound, CCR1 (h) assay
Ki (CCR1 (h)): 0.041 nM

alpha-dendrotoxin
Ki (KV channel): 0.2 nM

COc1cccc(OC)c1-c1cc(C(=O)NC2(C(=O)O)C3CC4CC(C3)CC2C4)nn1-c1ccc(C(=O)N(C)CCCN(C)CCCN(C)C(=O)c2ccc(F)cc2)cc1C(C)C (stereo not drawn) [(IIIg), 2-{[5-(2,6-Dimethoxy-phenyl)-1-(4-{[3-({3-[(4-fluoro-benzoyl)-methyl-amino]-propyl}-methyl-amino)-propyl]-methyl-carbamoyl}-2-isopropyl-phenyl)-1H-pyrazole-3-carbonyl]-amino}-adamantane-2-carboxylic acid]
IC50 (NTR1 [1]): 2 nM

COc1cccc(OC)c1-c1cc(C(=O)NC2(C(=O)O)C3CC4CC(C3)CC2C4)nn1-c1ccc(C(=O)N(CCCN)CCCN(C)C)cc1C(C)C (stereo not drawn) [(V), 2-{[1-{4-[(3-Amino-propyl)-(3-dimethylamino-propyl)-carbamoyl]-2-isopropyl-phenyl}-5-(2,6-dimethoxy-phenyl)-1H-pyrazole-3-carbonyl]-amino}-adamantane-2-carboxylic acid]
IC50 [nM] RLB (NTR1 [1]): single digit nanomolar
IC50 [nM] Ca (NTR1 [2]): single digit nanomolar

CCK-8s
nH Ref (CCK1 (CCKA) (h)): 0.6
